{"source": "patent US6001852A", "about": "(priority 1996, dated 1999)", "key": {"zinc precipitated Aβ": {"system": "zinc precipitated Aβ", "experiment": "Washing of zinc-aggregated synthetic Aβ on nylon membrane (anti Aβ mAb 6E10, ECL-film)", "assay_type": "biochemical", "details": "2 μM in TBS, 200 μl wash; 10 ng Aβ aggregated with 25 μM ZnCl; 100% for TBS alone", "description": "Samples of 10 ng synthetic Aβ were placed in microtitre wells and caused to aggregate by the addition of 25 μM ZnCl. The aggregates were then transferred to a 0.2 μm nylon membrane by filtration. […] The membrane was fixed, probed with the anti Aβ monoclonal antibody 6E10 and developed for exposure to ECL-film. The transmittance of the ECL-film was measured and the relative signal strength calculated based on 100% for TBS alone."}, "zinc-aggregated Aβ": {"system": "zinc-aggregated Aβ", "experiment": "Resolubilization of zinc-aggregated Aβ in TBS pH 7.4", "assay_type": "biochemical", "details": "clioquinol added after 30 μM zinc (43% in solution with zinc alone, 95% before zinc)", "description": "The ability of clioquinol to resolubilize zinc-aggregated Aβ was assessed. A […] solution of Aβ in TBS at a pH of 7.4 was prepared. 95% of the Aβ was maintained in a soluble state."}, "[1]": {"experiment": "Dissolution of clioquinol in n-decane and extraction into PBS pH 7.4", "assay_type": "physicochemical", "description": "The resolubilization of amyloid aggregates by clioquinol was studied. […] The undissolved aterial was allowed to settle. […] 100 ml of the (light yellow) supernatant was agitated together with 100 ml of PBS pH 7.4 and the phases allowed to separate. The PBS (lower phase) was collected and filtered to remove the residue which formed at the phase interface upon extraction with the organic solvent."}, "Aβ": {"system": "Aβ", "experiment": "Solubilization of Aβ from Alzheimer's disease brain homogenates (Western blot, mAb W02)", "assay_type": "biochemical, human", "details": "frontal lobe neocortex homogenized in clioquinol/PBS at 100%, 10% and 1% (100%=800 nM)", "method": "Brain specimens were obtained for which a histopathological diagnosis of Alzheimer's disease was confirmed.\nThe homogenates were centrifuged at 150,000 xg for thirty minutes and the supernatants collected and held on ice (fraction \"S\"). The pellets were subjected to an identical homogenization and centrifugation regime and the resulting supernatants again collected (fraction \"P\")\n1 ml of each supernatant was treated with 200 μl of ice cold 10% TCA to precipitate total protein including Aβ. The resulting pellet was washed once with 100% ethanol and resuspended in 100 μl of TBS (tris 20 mM, NaCl 150 mM, pH 7.4).\n7.5 μl of sample (S or P) was boiled for 5 min. with an equal volume of tris-tricine sample buffer containing 4% SDS and loaded onto a Novex pre-cast 10-20% tris-tricine gel followed by Western transfer onto nitrocellulose. […] The sensitivity of the detection system is 5-10 pg.\nTo validate the TCA precipitation for Aβ 1 μg of synthetic Aβ 1-40 was added to 1 ml of PBS containing 10% BSA and the solution was treated as above."}, "[2]": {"experiment": "1H NMR study of the interaction of vitamin B12 with clioquinol glucuronide", "assay_type": "binding", "details": "2.6 mM vitamin B12 and 10 mM clioquinol glucuronide, buffered water pH 6.5, 20° C.", "description": "Three different solutions were prepared and their ^1 H NMR spectra were recorded in a DRX 400 MHz spectrophotometer at 20° C. Solution a) contained free vitamin B12 (hydroxycobalamin) in a concentration of 2.6 mM.\nIn FIG. 1 the spectra of the three solutions are presented for the aromatic region (5.5-9.8 ppm). The differences are quite small but obvious in the expansion shown of FIG. 2 and FIG. 3, respectively."}}, "data": [{"smiles": "O=C(O)CN(CCN(CC(=O)O)CC(=O)O)CC(=O)O", "note": "[EDTA]", "values": [{"measurement": "Relative signal strength (Aβ remaining on membrane)", "setting": "zinc precipitated Aβ", "value": 66, "unit": "%"}]}, {"smiles": "Oc1c(I)cc(Cl)c2cccnc12", "note": "[clioquinol, 5-chloro-7-iodo-8 hydroxyquinoline]", "values": [{"measurement": "Soluble Aβ", "setting": "zinc-aggregated Aβ", "value": 70, "unit": "%"}, {"measurement": "Share of clioquinol dissolved in n-decane", "setting": "[1]; 5.3 g suspended in 200 ml n-decane", "value": 2, "unit": "%"}, {"measurement": "Concentration of clioquinol in the PBS", "setting": "[1]; PBS pH 7.4 extract of decane supernatant, 1:1, assuming 2% dissolved and partitioning coefficient 1/1750", "value": 800, "unit": "nM"}, {"measurement": "Solubilization of Aβ", "setting": "Aβ", "value": "effective in promoting the solubilization of Aβ"}]}, {"smiles": "COC(=O)[C@H]1OC(Oc2c(I)cc(Cl)c3cccnc23)[C@H](OC(C)=O)[C@@H](OC(C)=O)[C@@H]1OC(C)=O", "note": "(stereo partly drawn) [methyl (5-chloro-7-iodo-quinolyl-2',3',4'-tri-o-acetyl-glucopyranosid)uronate]", "values": [{"measurement": "Interaction with vitamin B12 (shifted 1H NMR resonances)", "setting": "[2]", "value": "interaction between clioquinol glucuronide and vitamin B12"}]}]}
